According to ChEMBL document CHEMBL3885881, “DrugMatrix”:

Species on record: Rattus norvegicus
Experiment: DrugMatrix - Regimen: Daily Repeat
Assay type: toxicity, organism-based, Sprague-Dawley
Design: regimen Daily Repeat, gender Male, age 6-8 weeks
Conditions: in vivo, vehicle 100 % SALINE; for ABSOLUTE BASOPHIL / ABSOLUTE EOSINOPHIL / ABSOLUTE LYMPHOCYTE / ABSOLUTE MONOCYTE / ABSOLUTE SEGMENTED NEUTROPHIL / BASOPHIL / EOSINOPHIL / ERYTHROCYTE COUNT / HEMOGLOBIN / LEUKOCYTE COUNT / LYMPHOCYTE / MEAN CORPUSCULAR HEMOGLOBIN / MEAN CORPUSCULAR HEMOGLOBIN CONCENTRATION / MEAN CORPUSCULAR VOLUME / NUCLEATED RED BLOOD CELLS / PLATELET COUNT: tissue Blood
[1] = iv, 0.004 mg/kg, 72 h, dose level Low, time 3 day
[2] = iv, 0.004 mg/kg, 72 h, tissue Plasma, dose level Low, time 3 day
[3] = iv, 0.004 mg/kg, 120 h, dose level Low, time 5 day
[4] = iv, 0.004 mg/kg, 120 h, tissue Plasma, dose level Low, time 5 day
[5] = sc, 0 mg/kg, 72 h, route mini-PUMP - SUBCUTANEOUS, dose level Control, time 3 day
[6] = sc, 0 mg/kg, 72 h, tissue Plasma, route mini-PUMP - SUBCUTANEOUS, dose level Control, time 3 day

Q: What does the source list for CNC[C@H](O)c1ccc(O)c(O)c1 [EPINEPHRINE]?
A: ABSOLUTE BASOPHIL [1]: 0 CELLS/uL; ABSOLUTE EOSINOPHIL [1]: 127.67 CELLS/uL; ABSOLUTE LYMPHOCYTE [1]: 11755 CELLS/uL; ABSOLUTE MONOCYTE [1]: 0 CELLS/uL; ABSOLUTE SEGMENTED NEUTROPHIL [1]: 884 CELLS/uL; BASOPHIL [1]: 0%; EOSINOPHIL [1]: 1%; ERYTHROCYTE COUNT [1]: 5.71 x10E6/uL; HEMOGLOBIN [1]: 14.07 G/DL; LEUKOCYTE COUNT [1]: 12.77 x10E3/uL; LYMPHOCYTE [1]: 92%; MEAN CORPUSCULAR HEMOGLOBIN [1]: 24.73 pg; MEAN CORPUSCULAR HEMOGLOBIN CONCENTRATION [1]: 37.8 G/DL; MEAN CORPUSCULAR VOLUME [1]: 65.37 fL; NUCLEATED RED BLOOD CELLS [1]: 0 /100WBC; PLATELET COUNT [1]: 1271 x10E3/uL; ALANINE AMINOTRANSFERASE [2]: 57.33 u/L; ALBUMIN [2]: 4.43 G/DL; ALKALINE PHOSPHATASE [2]: 425 u/L; ASPARTATE AMINOTRANSFERASE [2]: 75 u/L; BLOOD UREA NITROGEN [2]: 14 mg/dL; CARBON DIOXIDE [2]: 27 mmol/L; CHLORIDE [2]: 101.33 MEQ/L; CHOLESTEROL [2]: 80 mg/dL; CREATINE PHOSPHOKINASE [2]: 187.33 u/L; CREATININE [2]: 0.23 mg/dL; LACTATE DEHYDROGENASE [2]: 118.67 u/L; LIPASE [2]: 9 u/L; PHOSPHORUS [2]: 12.7 mg/dL; POTASSIUM [2]: 6.89 MEQ/L; SODIUM [2]: 145.07 MEQ/L; TOTAL PROTEIN [2]: 6.1 G/DL; ABSOLUTE BASOPHIL [3]: 0 CELLS/uL; ABSOLUTE EOSINOPHIL [3]: 147.67 CELLS/uL; ABSOLUTE LYMPHOCYTE [3]: 10984 CELLS/uL; ABSOLUTE MONOCYTE [3]: 0 CELLS/uL; ABSOLUTE SEGMENTED NEUTROPHIL [3]: 1368.33 CELLS/uL; BASOPHIL [3]: 0%; EOSINOPHIL [3]: 1%; ERYTHROCYTE COUNT [3]: 5.59 x10E6/uL; HEMOGLOBIN [3]: 13.2 G/DL; LEUKOCYTE COUNT [3]: 12.5 x10E3/uL; LYMPHOCYTE [3]: 87.33%; MEAN CORPUSCULAR HEMOGLOBIN [3]: 23.63 pg; MEAN CORPUSCULAR HEMOGLOBIN CONCENTRATION [3]: 37.23 G/DL; MEAN CORPUSCULAR VOLUME [3]: 63.47 fL; NUCLEATED RED BLOOD CELLS [3]: 0 /100WBC; PLATELET COUNT [3]: 1309.33 x10E3/uL; ALANINE AMINOTRANSFERASE [4]: 48 u/L; ALBUMIN [4]: 4.47 G/DL; ALKALINE PHOSPHATASE [4]: 367.33 u/L; ASPARTATE AMINOTRANSFERASE [4]: 79 u/L; BLOOD UREA NITROGEN [4]: 16 mg/dL; CARBON DIOXIDE [4]: 24 mmol/L; CHLORIDE [4]: 103 MEQ/L; CHOLESTEROL [4]: 67.33 mg/dL; CREATINE PHOSPHOKINASE [4]: 204.67 u/L; CREATININE [4]: 0.23 mg/dL; LACTATE DEHYDROGENASE [4]: 102.67 u/L; LIPASE [4]: 8 u/L; PHOSPHORUS [4]: 13.37 mg/dL; POTASSIUM [4]: 6.61 MEQ/L; SODIUM [4]: 145.67 MEQ/L; TOTAL PROTEIN [4]: 6.3 G/DL; ABSOLUTE BASOPHIL [5]: 0 CELLS/uL; ABSOLUTE EOSINOPHIL [5]: 77.17 CELLS/uL; ABSOLUTE LYMPHOCYTE [5]: 14293.83 CELLS/uL; ABSOLUTE MONOCYTE [5]: 354 CELLS/uL; ABSOLUTE SEGMENTED NEUTROPHIL [5]: 1658.33 CELLS/uL; BASOPHIL [5]: 0%; EOSINOPHIL [5]: 0.5%; ERYTHROCYTE COUNT [5]: 6.27 x10E6/uL; HEMOGLOBIN [5]: 13.4 G/DL; LEUKOCYTE COUNT [5]: 16.38 x10E3/uL; LYMPHOCYTE [5]: 87.17%; MEAN CORPUSCULAR HEMOGLOBIN [5]: 21.42 pg; MEAN CORPUSCULAR HEMOGLOBIN CONCENTRATION [5]: 36.27 G/DL; MEAN CORPUSCULAR VOLUME [5]: 59.03 fL; NUCLEATED RED BLOOD CELLS [5]: 0 /100WBC; PLATELET COUNT [5]: 904.67 x10E3/uL; ALANINE AMINOTRANSFERASE [6]: 48.33 u/L; ALBUMIN [6]: 3.82 G/DL; ALKALINE PHOSPHATASE [6]: 282.33 u/L; ASPARTATE AMINOTRANSFERASE [6]: 86.83 u/L; BLOOD UREA NITROGEN [6]: 20.17 mg/dL; CARBON DIOXIDE [6]: 34.67 mmol/L; CHLORIDE [6]: 102 MEQ/L; CHOLESTEROL [6]: 71.5 mg/dL; CREATININE [6]: 0.2 mg/dL; LACTATE DEHYDROGENASE [6]: 159 u/L; LIPASE [6]: 9 u/L; PHOSPHORUS [6]: 10.12 mg/dL; POTASSIUM [6]: 5.92 MEQ/L; SODIUM [6]: 147.8 MEQ/L; TOTAL BILIRUBIN [6]: 0.2 mg/dL
